Test results: patent publication US12465590B2, “Oxalamido-substituted tricyclic inhibitors of hepatitis b virus” (priority 2019, dated 2025)

Tested on: HBV
Assay: HBV inhibition assay in HepAD38 cells (extracellular HBV DNA by direct qPCR)
Assay type: cell-based, HBV genotype D subtype ayw
Settings: 96 hours, read-out: HBV inh EC50
Excerpt: HepAD38 cell line (Ladner et al., Antimicrob Agents Chemother, 1997, 41, 1715-20) was used for HBV inhibition assays. HepAD38 is a subclone, derived from hepatoblastoma cell line HepG2 (ATCC® Number: HB-8065), that expresses HBV genome (genotype D subtype ayw) under the transcriptional control of a tetracycline-responsive promoter in a TET-OFF system: addition of doxycycline, an antibiotic belonging to the class of tetracycline, suppresses HBV replication, while its removal switches on the process allowing HBV viral particles release in the cell supernatant. HepAD38 cell line is maintained in DMEM/F12, supplemented with 10% of fetal bovine serum, 1% of glutamine, 1% of penicillin/streptomycin, 0.4 mg/ml G418 and 0.3 ug/ml tetracycline. For the HBV inhibition assay, doxycycline-free medium is used in order to allow virion production.
HBV inhibition activity in vitro was performed in 96 multiwell plates. During the initial (primary) screening, compounds were first tested in triplicates at concentrations of 0.02 μM, 0.1 μM, 0.5 μM and 1 μM. For selected compounds, an 8-point dose-response curve was obtained using 1:2 serial dilutions (starting from 0.01 μM, 0.1 μM, 0.4 μM or 5 μM, depending on the degree of inhibition observed during the primary screening). From the dose-response curves, half maximal effective concentration (EC50) could be calculated (see also below).
In more detail, compounds—typically dissolved in DMSO stock solutions—were diluted to 2× the final desired concentration in 100 μl of the above medium (without doxycycline) and plated in three replicates in the 96-well plates.
Simultaneously, HepAD38 cells—extensively pre-washed in doxycycline-free medium in order to induce HBV production—were suspended at 2*10^4 cells in 100 μl of doxycycline-free medium and added to each well of the plate, to yield a final assay volume of 200 μl.
DMSO, used for stock solutions and compounds dilutions, was always present in the assays at a final concentration of 0.5%.
Plates were then incubated 96 hours at 37° C. and then subjected to cell viability assays and extracellular HBV quantification, in order to evaluate both the cytotoxic potential and the antiviral activity of compounds.
Cytotoxicity was assessed by a commercial fluorescence assay that measures the metabolic activity of cells, directly related to cell viability (Cell Titer Blue, Promega). For each compound, cytotoxicity was evaluated at the same concentration employed to evaluate its anti-HBV activity. Anti-HBV activity was evaluated by quantification of extracellular HBV DNA with direct qPCR. In particular, supernatant was collected and centrifuged for cell debris clarification, viral DNA was extracted from virions by addition of lysis buffer (1 mM 1,4-dithiothreitol, 0.2% sodium dodecyl sulphate) and incubated at 95° C. for 10 min. Samples were then diluted 1:40 and real time PCR amplification was performed with SYBR green assay (Power SYBR™ Green PCR Master Mix-Thermo Fisher Scientific) and specific HBV primer (HBV-DF:5′-[…]-3′ (SEQ ID No. 1), HBV-DR:5′-[…]-3′ (SEQ ID No. 2)).
Antiviral activity data for each compound are reported as EC50 value (see Table 1 legend). Excel and Graphpad Prism programs are typically used for data elaboration and EC50 calculation.

SMILES	EC50 [nM]
Cc1cc(NC(=O)c2c3c(cn2C)S(=O)(=O)NC2CN(C(=O)C(=O)N4CC(F)(F)C4)CCC2CO3)ccc1F (racemic) [Example E70, Trans-7-(2-(3,3-difluoroazetidin-1-yl)-2-oxoacetyl)-N-(4-fluoro-3-methylphenyl)-2-methyl-5,5a,6,7,8,9,9a,10-octahydro-2H-pyrido[3,4-f]pyrrolo[3,4-b][1,4,5]oxathiazocine-1-carboxamide 4,4-dioxide]	< 500
Cc1cc(NC(=O)c2c3c(cn2C)S(=O)(=O)NC2CN(C(=O)C(=O)N[C@H](C)C(F)(F)F)CCC2CO3)ccc1F (mixture of isomers) [Example E66, Trans-N-(4-fluoro-3-methylphenyl)-2-methyl-7-(2-oxo-2-(((R)-1,1,1-trifluoropropan-2-yl)amino)acetyl)-5,5a,6,7,8,9,9a,10-octahydro-2H-pyrido[3,4-f]pyrrolo[3,4-b][1,4,5]oxathiazocine-1-carboxamide 4,4-dioxide]	< 500
Cc1cc(NC(=O)c2c3c(cn2C)S(=O)(=O)NC2CN(C(=O)C(=O)NCC(F)(F)F)CCC2CO3)ccc1F (racemic) [Example E68, Trans-N-(4-fluoro-3-methylphenyl)-2-methyl-7-(2-oxo-2-((2,2,2-trifluoroethyl)amino)acetyl)-5,5a,6,7,8,9,9a,10-octahydro-2H-pyrido[3,4-f]pyrrolo[3,4-b][1,4,5]oxathiazocine-1-carboxamide 4,4-dioxide]	< 500
Cc1cc(NC(=O)c2c3c(cn2C)S(=O)(=O)NC2CN(C(=O)C(=O)NC4CC4)CCC2CO3)ccc1F (racemic) [Example E67, Trans-7-(2-(cyclopropylamino)-2-oxoacetyl)-N-(4-fluoro-3-methylphenyl)-2-methyl-5,5a,6,7,8,9,9a,10-octahydro-2H-pyrido[3,4-f]pyrrolo[3,4-b][1,4,5]oxathiazocine-1-carboxamide 4,4-dioxide]	< 500
Cc1cc(NC(=O)c2c3c(cn2C)S(=O)(=O)NC2CN(C(=O)C(=O)NC(C)(C)C(F)(F)F)CCC2CO3)ccc1F (racemic) [Example E69, Trans-N-(4-fluoro-3-methylphenyl)-2-methyl-7-(2-oxo-2-((1,1,1-trifluoro-2-methylpropan-2-yl)amino)acetyl)-5,5a,6,7,8,9,9a,10-octahydro-2H-pyrido[3,4-f]pyrrolo[3,4-b][1,4,5]oxathiazocine-1-carboxamide 4,4-dioxide]	< 500
Cc1cc(NC(=O)c2c3c(cn2C)S(=O)(=O)NC2CN(C(=O)C(=O)N[C@@H](C)C(F)(F)F)CCC2CO3)ccc1F (mixture of isomers) [Example E71, Trans-N-(4-fluoro-3-methylphenyl)-2-methyl-7-(2-oxo-2-(((S)-1,1,1-trifluoropropan-2-yl)amino)acetyl)-5,5a,6,7,8,9,9a,10-octahydro-2H-pyrido[3,4-f]pyrrolo[3,4-b][1,4,5]oxathiazocine-1-carboxamide 4,4-dioxide]	< 500

Same assay, conditions: Hepatitis B virus, 96 hours, read-out: HBV inh EC50

SMILES	EC50 [nM]
Cc1cc(NC(=O)c2c3c(cn2C)S(=O)(=O)NC2CN(C(=O)C(=O)N[C@H](C)C(F)(F)F)CC2CO3)ccc1F (stereo in doubt) [Example E30, trans-N-(4-fluoro-3-methylphenyl)-7-methyl-2-(2-oxo-2-(((R)-1,1,1-trifluoropropan-2-yl)amino)acetyl)-2,3,3a,4,10,10a-hexahydro-1H,7H-dipyrrolo[3,4-b:3′,4′-f][1,4,5]oxathiazocine-8-carboxamide 5,5-dioxide]	< 500
Cc1cc(NC(=O)c2c3c(cn2C)S(=O)(=O)NC2CN(C(=O)C(=O)N[C@H](C)C(F)(F)F)CCC2CO3)ccc1F (mixture of isomers) [Example E60, Cis-N-(4-fluoro-3-methylphenyl)-2-methyl-7-(2-oxo-2-(((R)-1,1,1-trifluoropropan-2-yl)amino)acetyl)-5,5a,6,7,8,9,9a,10-octahydro-2H-pyrido[3,4-f]pyrrolo[3,4-b][1,4,5]oxathiazocine-1-carboxamide 4,4-dioxide]	< 500
Cc1cc(NC(=O)c2c3c(cn2C)S(=O)(=O)NC2CCN(C(=O)C(=O)NCC(F)(F)F)CC2CO3)ccc1F (racemic) [Example E57, Trans-N-(4-fluoro-3-methylphenyl)-2-methyl-8-(2-oxo-2-((2,2,2-trifluoroethyl)amino)acetyl)-5,5a,6,7,8,9,9a,10-octahydro-2H-pyrido[4,3-f]pyrrolo[3,4-b][1,4,5]oxathiazocine-1-carboxamide 4,4-dioxide]	< 500
Cc1cc(NC(=O)c2c3c(cn2C)S(=O)(=O)N[C@H]2CN(C(=O)C(=O)N[C@H](C)C(F)(F)F)C[C@@]2(C)CO3)ccc1F [Example E74, (3aR,10aR)—N-(4-fluoro-3-methylphenyl)-7,10a-dimethyl-2-(2-oxo-2-(((R)-1,1,1-trifluoropropan-2-yl)amino)acetyl)-2,3,3a,4,10,10a-hexahydro-1H,7H-dipyrrolo[3,4-b:3′,4′-f][1,4,5]oxathiazocine-8-carboxamide 5,5-dioxide]	< 500
Cc1cc(NC(=O)c2c3c(cn2C)S(=O)(=O)NC2(C)CN(C(=O)C(=O)N[C@H](C)C(F)(F)F)CC2CO3)ccc1F (stereo in doubt) [Example E27, Cis-N-(4-fluoro-3-methylphenyl)-3a,7-dimethyl-2-(2-oxo-2-(((R)-1,1,1-trifluoropropan-2-yl)amino)acetyl)-2,3,3a,4,10,10a-hexahydro-1H,7H-dipyrrolo[3,4-b:3 ‘,4’-f][1,4,5]oxathiazocine-8-carboxamide 5,5-dioxide]	< 500
Cc1cc(NC(=O)c2c3c(c(Br)n2C)S(=O)(=O)N[C@H]2CN(C(=O)C(=O)N[C@H](C)C(F)(F)F)C[C@H]2CO3)ccc1F [Example E52, (3aR,10aR)-6-bromo-N-(4-fluoro-3-methylphenyl)-7-methyl-2-(2-oxo-2-(((R)-1,1,1-trifluoropropan-2-yl)amino)acetyl)-2,3,3a,4,10,10a-hexahydro-1H,7H-dipyrrolo[3,4-b:3′,4′-f][1,4,5]oxathiazocine-8-carboxamide 5,5-dioxide]	< 500
Cc1cc(NC(=O)c2c3c(cn2C)S(=O)(=O)NC2CN(C(=O)C(=O)NC(C)(C)C(F)(F)F)CCC2CO3)ccc1F (racemic) [Example E62, Cis-N-(4-fluoro-3-methylphenyl)-2-methyl-7-(2-oxo-2-((1,1,1-trifluoro-2-methylpropan-2-yl)amino)acetyl)-5,5a,6,7,8,9,9a,10-octahydro-2H-pyrido[3,4-f]pyrrolo[3,4-b][1,4,5]oxathiazocine-1-carboxamide 4,4-dioxide]	< 500
Cc1cc(NC(=O)c2c3c(cn2C)S(=O)(=O)N[C@H]2CN(C(=O)C(=O)N[C@H](C)C(F)(F)F)C[C@@]2(O)CO3)ccc1F [Example E75, (3aS,10aS)—N-(4-fluoro-3-methylphenyl)-10a-hydroxy-7-methyl-2-(2-oxo-2-(((R)-1,1,1-trifluoropropan-2-yl)amino)acetyl)-2,3,3a,4,10,10a-hexahydro-1H,7H-dipyrrolo[3,4-b:3′,4′-f][1,4,5]oxathiazocine-8-carboxamide 5,5-dioxide]	< 500
Cc1cc(NC(=O)c2c3c(cn2C)S(=O)(=O)NC2CCN(C(=O)C(=O)N4CC(F)(F)C4)CC2CO3)ccc1F (racemic) [Example E55, Trans-8-(2-(3,3-difluoroazetidin-1-yl)-2-oxoacetyl)-N-(4-fluoro-3-methylphenyl)-2-methyl-5,5a,6,7,8,9,9a,10-octahydro-2H-pyrido[4,3-f]pyrrolo[3,4-b][1,4,5]oxathiazocine-1-carboxamide 4,4-dioxide]	< 500
Cc1cc(NC(=O)c2c3c(cn2C)S(=O)(=O)NC2CN(C(=O)C(=O)NCC(F)(F)F)CCC2CO3)ccc1F (racemic) [Example E61, Cis-N-(4-fluoro-3-methylphenyl)-2-methyl-7-(2-oxo-2-((2,2,2-trifluoroethyl)amino)acetyl)-5,5a,6,7,8,9,9a,10-octahydro-2H-pyrido[3,4-f]pyrrolo[3,4-b][1,4,5]oxathiazocine-1-carboxamide 4,4-dioxide]	< 500
